Tests used:
[1] = system: mice in the conditions of hypoxia; experiment: Effect on the time of survival in the conditions of hypoxia; type: in vivo, mouse; details: surviving/complete number
Protocol: The examined preparation was applied i.o. in the dosages 5, 10, 50, 75, 100 mg/kg 60 minutes before the beginning of the experiment. The experiment lasted until 0-3 animals survived in the control group. Subsequently oxygen was let in and finally normal air. The number of animals which survived in the control group was compared to the number of animals in the group administered the examined preparation. The number of surviving mice is presented in relation to the complete number of examined mice.

uptake of serotonin = experiment: Effect on the uptake of serotonin in vivo (protection from p-chloramphetamine)
[2] = system: reserpine pretreated mice; experiment: Intensification of L-Dopa effects in reserpine pretreated mice; type: in vivo, mouse; details: 8 mg/kg + L-Dopa 300 mg/kg after reserpine
Protocol: 2) The intensification of L-Dopa effects in reserpine pretreated mice.
The examined preparation was administered to mice p.o. in the dosages of 40 and 200 mg/kg 17 hours after reserpine in the dosage of 2,5 mg/kg had been administered intraperitoneally. After one hour L-dopa was injected in the dosage of 300 mg/kg. The intensification of L-dopa anti-reserpine action was evaluated according to the following parameters of the animals behaviour: mobility, irritability, ptosis and body temperature. According to the same empirical system IMI was examined in the dosages of 8 and 40 mg/kg.

beta-adrenergic receptor = experiment: Influence of chronic administration on concentration of beta-adrenergic cerebral receptors in vivo (3H-dihydroalprenolol bonding to cerebral cortex membranes); parameters: species or system rat; details: 10 mg/kg chronic administration, six weeks
Protocol: Rats were administered the examined preparation in the form of intraperitoneally injection and the dosage of 200 mg/kg twice daily for six weeks. In the same empirical system IMI was examined in the dosage of 10 mg/kg. The animals were killed 24 hours after the last injection and their cerebral cortexes were skeletonized.
The population of the beta-adrenergic receptor was characterised by the examination of the parameters of the ^3 H-dihydroalprenolol (^3 H-DHA) bonding to the membranes (fractiom P2) of the cerebral cortex. The tissue was homogenised in 20 volumes of the 50 mM buffer TRIS-HCl, pH 7,6 in the Polytron disintegrator (position 4,155) and centrifuged at 1000 g for 10 minutes. The supernatant was decanted and again centrifuged at 25000 for 20 minutes. The operations were conducted in the temperature of 0°-4° C. The precipitate, after the second centrifugation, decanting and removing the supernatant, was kept in the temperature of -18° C. until the time of incubation (no longer than 48 hours). The final fraction P2 was obtained by the subsequent process of the sediment homogenisation in such a volume of 50 mM buffer TRIS-HCl, pH 7,6, that the final concentration of protein amounted to 1,5 mg/ml.
The incubation mixture, containing 450 μl of the fraction P2 suspension, 50 μl of the ^3 H-DHA solution (6 different solutions; the final concentrations in the mixture […]) and 50 μl of buffer or propranolol solution (the final concentration in the sample […]) was incubated for 30 minutes in the temperature of 25° C. The incubation was finished by filtrating the suspension through filters made of glass fibres. The filters were twice rinsed with 5 ml of cold (0° C.) buffer TRIS-HCl, pH 7,6, and placed in scintillation minivessels, to which Bray's liquid was added. The radioactivity was measured by the Packard scintillation counter, model B329 with the efficiency of 36-37%.
The specific bonding was defined as the radioactivity difference between the samples incubated in the absence of propranolol (complete bonding) and in the presence of 10 μM of propranolol (blank). The data from the counter […] were recalculated individually into the decay frequence […], calculating it from the individual efficiency of each sample, received from the relation of impulses in the canals A and B. Bmax value and the constant of dissociation KD was calculated from the Scatchard diagrams, which were rectilinear.

rats behaviour = experiment: Influence on the rats behaviour in "despair test" (Porsolt), immobility period; type: in vivo, rat; details: 20 mg/kg p.o., twice
Protocol: 1) The influence on the rats behaviour in "despair test".
The rats were placed separately in upright, metallic cylindrical containers, 60 cm high and 18 cm in diameter, containing 15 centimeters of water, at a temperature of 25° C. […] After 24 hours the rats were dived in water again and for 5 minutes the complete immobility period was measured. The examined preparation (containing 5-morpholinomethyl-3-(4-chlorobenzylideneamine)-2-oxazolidinone hydrochloride) or imipramine (IMI) was administered per os twice: at 24 hours and one hour before the beginning of the observation.

uptake of noradrenaline = experiment: Effect on the uptake of noradrenaline in vivo (protection from 6-OHDA); parameters: species or system rat
Protocol: The point of reference for measuring the inhibiting effect on the uptake of noradrenaline was the protection from the effect of 6-hydroxydopamine (6-OHDA), which was administered intraventricularly. Rats were applied intraventricularly 250 μg of 6-OHDA in the volume of 20 μl of 0,9% solution of […] and 0,1% solution of ascorbic acid. […] The animals were decapitated 7 days after and the level of noradrenaline in the whole brain was measured by the division on the Sephadex G-10 column and fluorimetric assay following oxidation.

[3] = system: mice premedicated with pargyline; experiment: Intensification of L-dopa effects in mice premedicated with pargyline; type: in vivo, mouse; details: L-dopa 200 mg/kg i.p. after pargyline, control 1-2
Protocol: 3) The intensification of L-dopa effects in mice premedicated with pargyline.
Three hours after the oral administration of pargyline in the dosage of 40 mg/kg, there was applied orally either the examined preparation or IMI, followed after one hour by L-dopa administered intraperitoneally in the dosage of 200 mg/kg. The behaviour of the mice was evaluated according to the following 5-level score:
1 - piloerection, Straub's tail, exophtalmos of eyes, minute salivating, irritability.
2 - as above + translocations, single jumps.
3 - as above + bigger incitement of mobility, frequent jumps, climbing, single squeaks.
4 - as above + great incitement of mobility, aggresion, fights.
5 - as above + maximum incitement of mobility and aggresion

[4] = 100 mg/kg, controls: Examined 9/60 (p <0, 01), Piracetam 7/40 (n.d.), Pyritinol 8/60 (p <0, 01)

NC(=O)CN1CCCC1=O [Piracetam, piracetam, reference compound]
The number of mice surviving in the conditions of hypoxia [1, 4]: 6/40
The number of mice surviving in the conditions of hypoxia ([1]; 300 mg/kg, control 6/60, p <0, 05): 18/60

CC(N)Cc1ccc(Cl)cc1 (stereo not drawn) [p-CA, p-chloramphetamine, reference compound]
serotonin, % in relation to the group after p-chloramphetamine (uptake of serotonin; p-CA alone (reference group), control 169): 100%
decline of the cerebral serotonine concentration (uptake of serotonin; p-chloramphetamine alone): 40%

CN(C)CCCN1c2ccccc2CCc2ccccc21 [IMI, imipramine, reference compound]
Temper. 60' (body temperature) [2]: 34,3
Bmax, % of control (beta-adrenergic receptor): 60%
KD, % of control (beta-adrenergic receptor): 129%
The immobility period, % of control (rats behaviour): 88%
noradrenaline, % in relation to the group after chemosympathectomy (uptake of noradrenaline; 20 mg/kg before 6-OHDA): 188%
Concentration of noradrenaline in the brain X ± SEM (uptake of noradrenaline; 20 mg/kg before 6-OHDA, control 205 ± 10, 5): 179 ± 113, 5 mg/kg tissue
Reaction of mice according to score ([3]; 4 mg/kg p.o.): 4
Reaction of mice according to score ([3]; 40 mg/kg p.o.): 3-4

Cc1ncc(CSSCc2cnc(C)c(O)c2CO)c(CO)c1O [Pyritinol, pyritinol, reference compound]
The number of mice surviving in the conditions of hypoxia [1, 4]: 30/60

NCCc1cc(O)c(O)cc1O [6-OHDA, 6-hydroxydopamine, reference compound]
decline of the noradrenalin content in the cerebrum (uptake of noradrenaline; 6-OHDA administered intraventricularly): over 50%
noradrenaline, % in relation to the group after chemosympathectomy (uptake of noradrenaline; 6-OHDA alone (reference group), control 216): 100%

— US5643907A, “Pharmaceutical composition containing 5-morpholinomethyl-3-(4-chlorobenzylideneamine)-2-oxazolidinone and its use for the treatment of CNS disorders” (priority 1993, dated 1997)
